Laboratory results reported in patent US20260226054A1, “CRYSTAL FORM AND AMORPHOUS SUBSTANCE OF INDOLINE SPIRO COMPOUND, AND PREPARATION METHOD THEREFOR AND USE THEREOF” (CHANGCHUN GENESCIENCE PHARMACEUTICAL CO., LTD., priority 2022, published 2026).
Converted amounts (≈) assume the structure as drawn.

Key:
Format in all cases: physicochemical
[1] = Solubility test of crystal form (room temperature); conditions: thermodynamic from solid
Protocol: About 5 mg of the crystal form sample was weighed and placed in an 8 mL glass bottle, and solvent was gradually added at room temperature. 10 μL of solvent was added each time until all solids were dissolved, and if 5 mL of solvent was added and the solids were not dissolved, the solvent addition was stopped.

[2] = Dynamic vapor sorption (DVS) hygroscopicity
Protocol: The sample was analyzed through Intrinsic DVS ([…]). The amount of test sample was about 20-30 mg. The temperature of a test room was controlled between 25±1° C., the relative humidity increased from 0% to 90% and then decreased to 0% at a rate of 10%/h, and mass data was recorded every 20 s.
The DVS curve was acquired from DVS Intrinsic through an SMS (Surface Measurement Systems). The relative humidity at 25° C. was calibrated according to deliquescent points of LiCl, Mg(NO3)2 and KCl.

[3] = Accelerated stability test of crystal form (Example 3, 40±2° C./75±5% RH)
Protocol: The sample was taken at 0th, 1st and 3rd month for analysis, the stability of the samples was determined by liquid phase, and the crystal form was determined by XRPD.

[4] = Long-term stability test, packaged crystal form (Table 7); conditions: 30±2° C./65±5% RH
Source text: (§1) Packaging requirements: it is needed to simulate commercially available packaging for the stability sample, the two inner layers are inner flat-bottom bags made of pharmaceutical polyethylene, the first layer of inner bag is tied and sealed, the second layer of inner bag is subjected to heat sealing, an aluminum foil bag at an outer layer is subjected to heat sealing, a package of desiccant is placed between the aluminum foil bag and the second layer of inner bag, and the package is placed in a fiber can.
The sample was taken in the 0th, 3rd and 6th months. The test items, test methods and technical requirements are detailed in Table 7, and the test results are compared with those in the 0th month.

[5] = Accelerated stability test, packaged crystal form (Table 6); conditions: 40 ± 2° C./75 ± 5% RH
Source text: as §1
The sample was taken in the 0th, 1st, 2nd, 3rd and 6th months. The test items, test methods and technical requirements are detailed in Table 6, and the test results are compared with those in the 0th month.

[6] = Stability Test 1 (80° C., lighting, 25° C./60% RH, 40° C./75% RH; HPLC)
Protocol: • Chromatographic conditions: • Chromatographic column: C18 column; • Running time: 60 min; • UV detector: 210 nm; • Flow rate: 1.0 mL/min; • Injection volume: 5 μL.
A certain amount of crystals and amorphous raw materials were weighed and placed in liquid phase vials, and a total of 5 parts were prepared. The 5 parts were respectively placed under 80° C. (opened), 25° C./60% RH (opened), and 40° C./75% RH (opened) and in a stable lighting chamber (closed, 5000±500 Lx), and the stability under lighting for 10 days, 80° C. 1 day, and the chemical stability under 25° C. and 60% RH and under 40° C. and 75% RH for 1 week were determined by liquid phase, and the XRPD of the solid was determined.

[7] = 25° C., 60% RH (opened), 1 week
[8] = 40° C., 75% RH (opened), 1 week
[9] = Lighting (closed, 5000±500 Lx), 10 Days

SMILES: CC(C)C(=O)O[C@@H](C)OC(=O)NC(C)(C)C(=O)N[C@H](COCc1ccccc1)C(=O)N1CCC2(CC1)CN(S(C)(=O)=O)c1ccccc12 [crystal form, (4R,11R)-7,7-dimethyl-4-(1-(methylsulfonyl)spiro[indoldoline-3,4′-piperidine]-1′-carbonyl)-6,9-dioxo-1-phenyl-2,10-dioxa-5,8-diazadodecane-11-ylisobutyrate]
- solubility ([1]; organic solvent or mixture, Acetone): ~117 mg/mL (≈ 170 mM)
- solubility ([1]; organic solvent or mixture, Acetonitrile): ~128 mg/mL (≈ 186 mM)
- solubility ([1]; organic solvent or mixture, Dichloromethane): ~251 mg/mL (≈ 365 mM)
- solubility ([1]; organic solvent or mixture, Ethanol): ~20.9 mg/mL (≈ 30.4 mM)
- solubility ([1]; organic solvent or mixture, Ethyl acetate): ~133 mg/mL (≈ 193 mM)
- solubility ([1]; organic solvent or mixture, Methyl tert-butyl ether): ~0.7 mg/mL (≈ 1.02 mM)
- solubility ([1]; organic solvent or mixture, N-heptane): < 0.6 mg/mL
- solubility ([1]; organic solvent or mixture, Tetrahydrofuran): ~232 mg/mL (≈ 339 mM)
- solubility ([1]; organic solvent or mixture, Toluene): ~13.2 mg/mL (≈ 19.2 mM)
- solubility ([1]; Water): < 0.7 mg/mL
- Moisture adsorption (DVS) ([2]; 25° C./80% RH): 0.10%
- Hygroscopicity (DVS) ([2]; 80% humidity, 25° C.): almost had no hygroscopicity
- Solid form by XRPD before and after DVS test ([2]; XRPD before vs after DVS): the crystal form did not vary
- Total impurities (%) ([3]; 1 month): 0.07%
- Total impurities (%) ([3]; 3 months): 0.05%
- Total impurities (%) ([3]; Initial): 0.07%
- Characters ([4]; 0th month): White powder
- Conclusion ([4]; 0th month): Qualified
- Content (anhydrous and insoluble residue)/HPLC ([4]; 0th month): 99.4%
- Isomer/HPLC: Chiral purity ([4]; 0th month): 100.0%
- Isomer/HPLC: Isomer 1 ([4]; 0th month): 0.05%
- Moisture ([4]; 0th month): 0.2%
- Related substance/HPLC: Impurity 3 ([4]; 0th month): <0.05%
- Related substance/HPLC: Other impurities ([4]; 0th month): 0.05%
- Related substance/HPLC: Total impurities ([4]; 0th month): 0.05%
- Characters ([4]; 3rd month): White powder
- Conclusion ([4]; 3rd month): Qualified
- Content (anhydrous and insoluble residue)/HPLC ([4]; 3rd month): 99.9%
- Isomer/HPLC: Chiral purity ([4]; 3rd month): 99.9%
- Isomer/HPLC: Isomer 1 ([4]; 3rd month): 0.06%
- Moisture ([4]; 3rd month): 0.1%
- Related substance/HPLC: Impurity 3 ([4]; 3rd month): <0.05%
- Related substance/HPLC: Other impurities ([4]; 3rd month): 0.05%
- Related substance/HPLC: Total impurities ([4]; 3rd month): 0.05%
- Stability under the long-term condition ([4]; 6 months vs 0th month): stable
- Characters ([4]; 6th month): White powder
- Conclusion ([4]; 6th month): Qualified
- Content (anhydrous and insoluble residue)/HPLC ([4]; 6th month): 99.6%
- Isomer/HPLC: Chiral purity ([4]; 6th month): 100.0%
- Isomer/HPLC: Isomer 1 ([4]; 6th month): 0.03%
- Moisture ([4]; 6th month): 0.1%
- Related substance/HPLC: Impurity 3 ([4]; 6th month): <0.05%
- Related substance/HPLC: Other impurities ([4]; 6th month): <0.05%
- Related substance/HPLC: Total impurities ([4]; 6th month): <0.05%
- New impurity peak ([4]; 6th month vs 0th month): ≤ 0.10%
- Conclusion ([5]; 0th month): Qualified
- Content (anhydrous and insoluble residue)/HPLC ([5]; 0th month): 99.4%
- Isomer/HPLC: Chiral purity ([5]; 0th month): 100.0%
- Isomer/HPLC: Isomer 1 ([5]; 0th month): 0.05%
- Moisture ([5]; 0th month): 0.2%
- Related substances/HPLC: Impurity 3 ([5]; 0th month): <0.05%
- Related substances/HPLC: Other impurities ([5]; 0th month): 0.05%
- Related substances/HPLC: Total impurities ([5]; 0th month): 0.05%
- Conclusion ([5]; 1st month): Qualified
- Content (anhydrous and insoluble residue)/HPLC ([5]; 1st month): 99.0%
- Isomer/HPLC: Chiral purity ([5]; 1st month): 100.0%
- Isomer/HPLC: Isomer 1 ([5]; 1st month): 0.04%
- Moisture ([5]; 1st month): 0.1%
- Related substances/HPLC: Impurity 3 ([5]; 1st month): <0.05%
- Related substances/HPLC: Other impurities ([5]; 1st month): 0.05%
- Related substances/HPLC: Total impurities ([5]; 1st month): 0.05%
- Conclusion ([5]; 2nd month): Qualified
- Content (anhydrous and insoluble residue)/HPLC ([5]; 2nd month): 98.9%
- Isomer/HPLC: Chiral purity ([5]; 2nd month): 100.0%
- Isomer/HPLC: Isomer 1 ([5]; 2nd month): 0.04%
- Moisture ([5]; 2nd month): 0.2%
- Related substances/HPLC: Impurity 3 ([5]; 2nd month): <0.05%
- Related substances/HPLC: Other impurities ([5]; 2nd month): 0.05%
- Related substances/HPLC: Total impurities ([5]; 2nd month): 0.05%
- Conclusion ([5]; 3rd month): Qualified
- Content (anhydrous and insoluble residue)/HPLC ([5]; 3rd month): 98.9%
- Isomer/HPLC: Chiral purity ([5]; 3rd month): 100.0%
- Isomer/HPLC: Isomer 1 ([5]; 3rd month): 0.04%
- Moisture ([5]; 3rd month): 0.1%
- Related substances/HPLC: Impurity 3 ([5]; 3rd month): <0.05%
- Related substances/HPLC: Other impurities ([5]; 3rd month): <0.05%
- Related substances/HPLC: Total impurities ([5]; 3rd month): <0.05%
- Stability under the accelerated condition ([5]; 6 months vs 0th month): stable
- Conclusion ([5]; 6th month): Qualified
- Content (anhydrous and insoluble residue)/HPLC ([5]; 6th month): 99.5%
- Isomer/HPLC: Chiral purity ([5]; 6th month): 100.0%
- Isomer/HPLC: Isomer 1 ([5]; 6th month): 0.04%
- Moisture ([5]; 6th month): 0.1%
- Related substances/HPLC: Impurity 3 ([5]; 6th month): <0.05%
- Related substances/HPLC: Other impurities ([5]; 6th month): <0.05%
- Related substances/HPLC: Total impurities ([5]; 6th month): <0.05%
- New impurity peak ([5]; 6th month vs 0th month): ≤ 0.10%
- Degradation (%) [6, 7]: 0.02%
- Purity (%) [6, 7]: 99.69%
- Degradation (%) [6, 8]: 0.1%
- Purity (%) [6, 8]: 99.61%
- Degradation (%) ([6]; 80° C. (opened), 1 Day): 0.12%
- Purity (%) ([6]; 80° C. (opened), 1 Day): 99.59%
- Purity (%) ([6]; Initial): 99.71%
- Degradation (%) [6, 9]: 0.35%
- Purity (%) [6, 9]: 99.36%
